Results reported in US12102631B2, “Quinolylnitrones for the treatment and prevention of a cerebral stroke or ischaemia” (ISQUAEMIA BIOTECH, S.L., priority 2018, dated 2024).
“And” between values parts separate entries of the source, which are not always exact repeats. Equal values may be shown once.

Assays:
[1] = Superoxide radical scavenging (hypoxanthine/xanthine oxidase system); assay type: biochemical; conditions: tested at 100 μM (0.1 mM)
Text: 3.7. Superoxide radical scavenging activity. Superoxide anion radical (O2⋅−) is less toxic than hydroxyl radical, but still one of the most known harmful toxic ROS. In physiological conditions, superoxide dismutase catalyzes its conversion to H2O2, which is the precursor for the formation of hydroxyl radicals in the presence of iron ions.43 Superoxide anion radicals O2⋅− and H2O2 are ROS produced in vivo through a one-electron reduction process of O2. The evaluation of superoxide anion radical scavenging activity can be determined using assays involving non-enzymatic or enzymatic production of superoxide anions. In this assay, superoxide anion radicals were generated by a hypoxanthine and xanthine oxidase reaction system, and the O2⋅− scavenging activity (%) has been measured spectrophotometrically.

[2] = tested on: primary neuronal cultures from rat cerebral cortex; test: Neuroprotection (MTT cell viability) in primary neuronal cultures exposed to oxygen-glucose deprivation (OGD); assay type: cell-based; conditions: Rattus norvegicus, 24 h recovery after 4 h OGD, R24 h = 0%, control = 100%
Protocol: Primary neuronal cultures. Primary neuronal cultures from rat cerebral cortex were prepared as previously described.^54 All procedures associated with animal experiments were approved by the Ethics Committee of the Hospital Ramón y Cajal, Madrid (Spain). Cell suspensions from cerebral cortex were prepared from 16- to 17-day-old Sprague-Dawley rat embryos. Living cells in cell suspension were counted by trypan blue exclusion method. Cells were seeded on plastic multidishes precoated with 0.05 mg/mL poly-D-lysine at a density of 2.5×10^5 cells/cm^2 and were kept at 37° C. in a 6.5% CO2 atmosphere in high glucose Dulbecco's medium supplemented with 15% heat-inactivated (56° C. for 30 min) foetal calf serum. After 24 h, cultured cells were […] to induce experimental ischemia.^23 Cultured cells were washed and placed in glucose-free Dulbecco's medium (bubbled with 95% N2/5% CO2 for 30 min), and maintained in a humidified hypoxia chamber equipped with an oxygen and carbon dioxide control unit (Biospherix) at 6.5% CO2 and <0.1% O2 in N2 at 37° C. Cells were exposed to OGD for a period of 4 h (OGD 4 h). At the end of the OGD period, culture medium was replaced with oxygenated serum-free medium, and cells were placed and maintained in the normoxic incubator for 24 h to recovery (R24 h). In the neuroprotection experiments, the compounds were added at the onset of recovery period. Control cultures in Dulbecco's medium containing glucose were kept in the normoxic incubator for the same period of time as the OGD, and then medium (Dulbecco's/Ham's F12, 1:1 [vol/vol], 5 mg/mL glucose, 2 mM L-glutamine, and 1 mM sodium pyruvate, and supplemented with 100 μg/mL transferrin, 100 μM putrescine, 20 nM progesterone, 30 nM sodium selenite and 5 μg/mL insulin). Here, 6-7 day old cultured neurons were used in the experiments, and contained 90% β-III-tubulin-positive mature neurons, as described previously.^55
Exposure of cell cultures to oxygen-glucose deprivation and treatments. Primary neuronal cultures were exposed to […]. Control experiments included the same amounts of vehicle (final concentration<0.5% ethanol). Nitrone 2 was used as reference compound for neuroprotection. The experimental procedures were blindly performed, assigning a random order to each assayed nitrone. Nitrones were analyzed independently four-eight times with different batch of cultures and each experiment was run in quadruplicate.
Cell viability assay. Cell viability was evaluated by quantification of living, metabolically active cells, as determined by a colorimetric assay using the photometric reduction of 3-(4,5-dimethylthiazol-2-yl)-2,5-diphenyl tetrazolium bromide (MTT) (Roche) to a blue formazan product. The assay of living, metabolically active cells was performed by incubating with 0.2 mg/mL MTT in the culture medium for 1.5 h in an incubator at 37° C. in a 6.5% CO2 atm. After the incubation period, cells were lysed with an equal volume of 10 mM HCl and 10% SDS overnight. Values were quantified by absorbance (test 595 nm, reference 690 nm). Decreased MTT activity denotes impairment of mitochondrial function and is considered to be an index of cell damage. Primary neuronal cultures were collected at times indicated for MTT determination.
Neuroprotection of compounds was evaluated by a cell viability assay. The neuroprotective effect of the compounds 5-32 was evaluated on primary neuronal cultures from cerebral cortex subjected to oxygen-glucose deprivation (OGD) to induce experimental ischemia. Afterwards, cultured neurons were placed and kept in normoxic and normoglycemic conditions to recovery. […]

[3] = tested on: Carrageenan-induced rat paw edema; test: Inhibition of Carrageenan-induced rat paw edema; assay type: in vivo, Fisher 344 rats; conditions: 0.01 mmol/kg intraperitoneally; 3.5 h after Carrageenan
Protocol: Inhibition of the Carrageenan-induced edema. Edema was induced in the right hind paw of Fisher 344 rats (150-200 g) by the intradermal injection of 0.1 mL 2% Carrageenan in water. Both sexes were used. Females pregnant were excluded. Each group was composed of 6 animals. The experiment was performed twice for validation. The animals, which have been bred in our laboratory, were housed under standard conditions and received a diet of commercial food pellets and water ad libitum during the maintenance, but they were entirely fasted during the experiment period. Nitrone 23 as well as of the standard drug indomethacin in 0.01 mmol/kg body weight, were diluted in water with few drops of Tween 80 and ground in a mortar before use and they were given intraperitoneally simultaneously with the Carrageenan injection. The rats were euthanized 3.5 h after Carrageenan administration. The difference between the weight of the injected and uninjected paws was calculated for each animal. The change in paw weight was compared with that in control animals (treated with water/or Tween-water) and expressed as a percent inhibition of the edema % ICPE values (Table 2). Values % ICPE are the mean from two different experiments (n=6 animals each time) with a standard error of the mean less than 10%.

[4] = Interaction with the stable radical DPPH; assay type: biochemical; conditions: tested at 100 μM; reducing activity
Protocol: Interaction of the nitrone with the Stable Radical 1,1-diphenyl-picrylhydrazyl (DPPH) To a solution of DPPH in absolute ethanol the appropriate volume of the compounds (0.1 mM final concentrations) dissolved in DMSO was added. The absorbance was recorded at 517 nm after 20 and 60 min at room temperature (Table 1).
3.1. Antioxidant activity of QNs using radical DPPH. […] This purple colour generally disappears in the presence of an antioxidant due to the reduction of the DPPH radical by single electron transfer (SET) from the antioxidant converted it to colourless/bleached product. […] In this assay, we measured the initial absorbance of DPPH and the absorbance once the potential antioxidant was added. The antioxidant activity was expressed as the percentage of reducing activity.

[5] = ABTS radical cation decolorization assay; assay type: biochemical; conditions: tested at 100 μM
Protocol: ABTS^⋅+-decolorization assay in ethanolic solution for antioxidant activity.^32,35 ABTS is dissolved in water to a 2 mM concentration. ABTS radical cation (ABTS^⋅+) is produced by reacting the ABTS stock solution with 0.17 mM potassium persulfate in phosphate buffer (pH 7.4, 20 mM) and allowing the mixture to stand in the dark at room temperature for 12-16 h before use. For steady state measurements, […] ABTS^⋅+ was used. For the present study, the […] ABTS^⋅ solution (200 μL) was diluted with ethanol (790 μL) to an absorbance of 0.70 at 734 nm, equilibrated at room temperature, mixed with 10 μL of the tested compounds (stock solutions 10 mM) and the absorbance reading was taken at room temperature 1 min after the initial mixing. Trolox was used as a standard.
3.4. ABTS^⋅+ antioxidant activity of QNs. The ABTS^⋅+ radical cation, derived from the oxidation of 2,2′-azino-bis(3-ethylbenzothiazoline-6-sulphonic acid) (ABTS) by potassium persulfate, is a green-blue stable chromophore, which can be analyzed in the course of a decolorization assay. The addition of electron-donor antioxidants leads to ABTS^⋅+ reduction. The chemistry taking place involves the direct generation of the ABTS^⋅+ with no involvement of an intermediary radical. […] Again, and as shown, QN23 presented limited activity beside with 19, although the others nitrones had no activity (Table 3).

[6] = Inhibition of linoleic acid peroxidation (AAPH, ILPO); assay type: biochemical; conditions: tested at 100 μM
Protocol: Inhibition of Linoleic Acid Peroxidation.^32 For initiating the free radical, 2,2′-azobis(2-amidinopropane) dihydrochloride (AAPH) is used. The final solution in the UV cuvette consisted of ten microliters of the 16 mM linoleate sodium dispersion 0.93 mL of 0.05 M phosphate buffer, pH 7.4, thermostatted at 37° C. 50 μL of 40 mM AAPH solution was added as a free radical initiator at 37° C. under air and 10 μL of the tested compounds. The oxidation of linoleic acid sodium salt results a conjugated diene hydroperoxide. The reaction is monitored at 234 nm (Table 1).
3.3. Anti-lipid peroxidation activity of QNs. The water-soluble azo compound 2,2′-azobis(2-amidinopropane) dihydrochloride (AAPH) has been extensively used as a clean and controllable source of thermally produced alkyl peroxyl free radicals through spontaneous thermal decomposition. […] In the AAPH assay to determine the inhibition of the lipid peroxidation (ILPO), the highly reactive alkylperoxyl radicals are intercepted mainly by a hydrogen atom transfer from the antioxidant. As shown, QN23 presented limited value, where QNs 19, 22 and 24 presented very high values (Table 3).

[7] = Hydroxyl radical scavenging (competition with DMSO); assay type: biochemical; conditions: tested at 100 μM
Protocol: Hydroxyl Radicals Scavenging Activity.^32 The hydroxyl radicals were produced by the Fe^3+/ascorbic acid system. EDTA (0.1 mM), Fe^3+ (167 μM), DMSO (33 mM) in phosphate buffer (50 mM, pH 7.4), the tested compounds (0.1 mM) and ascorbic acid (10 mM) were mixed in test tubes. The solutions were incubated at 37° C. for 30 min. The reaction was stopped by trichloroacetic acid (17% w/v) (Table 1) and the % scavenging activity of the tested compounds for hydroxyl radicals was given.
3.2. Competition of QNs with DMSO for hydroxyl radicals. Among the ROS, the hydroxyl (·OH) free radical is possibly the most toxic, as it easily reacts with biological important molecules such as DNA, lipids or carbohydrates. Polyunsaturated fatty acids are found in high concentrations in the CNS, and are particularly vulnerable to free radicals attack. Thus, we tried to test the ability of our compound to scavenge hydroxyl radicals. […] Antioxidants with lipophilic character are needed to act as radical scavengers or as chain-breaking antioxidants in biological membranes.

Row | SMILES | viability at 1 µM [2] | viability at 10 µM [2] | viability at 100 µM [2] | also measured
1 | O=C(O)/C=C/c1ccc(O)c(O)c1 [Caffeic acid, caffeic acid, reference compound] |  |  |  | O2*− (%) [1]: 15%
2 | COc1ccc(OC)c2nc(Cl)c(/C=[N+](\[O-])Cc3ccccc3)cc12 [Compound 28, (Z)—N-Benzyl-1-(2-chloro-5,8-dimethoxyquinolin-3-yl)methanimine oxide] | 35.1 ± 0.84% | 38.6 ± 0.55% | 44.27 ± 0.39% | 
3 | Cc1ccc2c(c1)cc(/C=[N+](\[O-])Cc1ccccc1)c(Cl)[n+]2[O-] [Compound 29, (Z)—N-Benzyl-1-(2-chloro-6-methyl-1-oxidoquinolin-3-yl)methanimine oxide] | < 0% | < 0% | < 0% | viability at 0.3 µM [2]: 8.28 ± 0.51%; melting point: 163 to 165 °C
4 | Cc1ccc2c(c1)cc(/C=[N+](\[O-])C(C)(C)C)c(Cl)[n+]2[O-] [Compound 30, (Z)—N-tert-Butyl-1-(2-chloro-6-methyl-1-oxidoquinolin-3-yl)methanimine oxide] | 37.5 ± 1.94% | < 0% | < 0% | viability at 0.3 µM [2]: 13 ± 0.47%; melting point: 211 to 214 °C
5 | CC(C)(C)/[N+]([O-])=C/c1cc2ccccc2n2nnnc12 [Compound 31, (Z)—N-tert-Butyl-1-(tetrazolo[1,5-a]quinolin-4-yl)methanimine oxide] | 7.64 ± 0.14% | 9.84 ± 0.65% | 5.83 ± 0.56% | 
6 | COc1ccc2c(c1)c(CC(=O)O)c(C)n2C(=O)c1ccc(Cl)cc1 [Indomethacin, indomethacin, reference compound] |  |  |  | ICPE % [3]: 47 ± 1.0 %
7 | CC(Cc1ccc(O)c(O)c1)C(C)Cc1ccc(O)c(O)c1 (centres unmarked) [NDGA, nordihydroguaiaretic acid, reference compound] |  |  |  | DPPH (%) [4]: 93%
8 | Cc1c(C)c2c(c(C)c1O)CCC(C)(C(=O)O)O2 (centres unmarked) [Trolox, reference compound] |  |  |  | ABTS*+ (%) [5]: 91%; ILPO (%) / AAPH (%) [6]: 63% and 88%; ILPO (%) / AAPH (%) ([6]; listed as trolox): 88%; *OH (%) [7]: 73%
